Columns and labels:
IL-6 = test: Muscle damage-protecting effect using myotube cell: IL-6 gene expression by quantitative real time PCR after H2O2 treatment; format: cell-based, mouse; settings: C2C12 myotube cell, 10 μg/ml for 24 hours, then 1 mM H2O2 for 2 hours, relative to GAPDH, compared to hydrogen peroxide group, FIGS. 3 and 4
Experimental: (§1) In this evaluation system, the C2C12 myoblast cell line derived from a mouse was used. The cell line is preserved in RIKEN BIORESOURCE CENTER, Japan, and the cell line can be shared. The cell is differentiated from a mononuclear myoblast cell into a maltinuclear myotube cell by differentiation induction, to thereby have a muscle fiber-like form. The cell was seeded in a collagen I-coated 35-mm dish and cultured in DMEM (11965-092, manufactured by GIBCO)+10% FBS (hereinafter, may be referred to as a growth medium) at 37° C. under 5% CO2 until the culture had 90% confluence. […] The concentration of the purified total RNA was determined based on the measurement results of the absorbance (260 nm, 280 nm). […] A quantitative real time PCR was performed by using the obtained cDNA. In the quantitative real time PCR, qPCR super mix-UDG with ROX was used as a reaction reagent, as primers for IL-6 and CXCL-1, Mm00446190 (manufactured by AB Corporation) and Mm00433859 (manufactured by AB Corporation) were used, respectively, and as a primer for […] (hereinafter, may be referred to as GAPDH) which was used as an internal standard, Mm99999915 (manufactured by AB Corporation) was used. […]

CXCL-1 = test: Muscle damage-protecting effect using myotube cell: CXCL-1 gene expression by quantitative real time PCR after H2O2 treatment; format: cell-based, mouse; settings: C2C12 myotube cell, 10 μg/ml for 24 hours, then 1 mM H2O2 for 2 hours, relative to GAPDH, compared to hydrogen peroxide group, FIG. 4
Experimental: as §1

Question: For CCCCCCCCCCCCCCC[C@@H](O)[C@@H](N)CO (single isomer, unassigned) [sphinganine], which “gene expression of IL-6” value (IL-6) is on record?
Answer: effect of inhibiting

Question: What about the “gene expression of CXCL-1” value (CXCL-1) of the same molecule?
Answer: effect of inhibiting

Reference: US20100047374A1, “COMPOSITION FOR PROTECTING MUSCLE DAMAGE” (priority 2007, published 2010)
